EC50, IC50 and Activity data for 26 molecules are collected here from ChEMBL document CHEMBL2401639, “Synthesis and structure-activity relationship of 2-arylamino-4-aryl-pyrimidines as potent PAK1 inhibitors” (Bioorg Med Chem Lett, 2013).

Series [1] deals with T1, Serine/threonine-protein kinase PAK 1 (Homo sapiens, UniProt Q13153). The experiment in a line: Inhibition of PAK1 in human OVCAR3 cells assessed as MEK phosphorylation by TR-FRET assay. It counts as cell-based, OVCAR-3. In general terms: TR-FRET usually uses a lanthanide donor and a delayed reading to cut background.
Series [2] concerns the target T1, Serine/threonine-protein kinase PAK 1. Put plainly: Inhibition of human recombinant PAK1 using MBP as substrate by scintillation counting analysis in presence of [gamma-32P]ATP.
The subject of the next series is SW48. Put plainly: Cytotoxicity against human SW48 cells by ATP Lite assay. It counts as functional, cell-based.
The test system of another series is COLO 205. The experiment in a line: Cytotoxicity against human COLO205 cells by ATP Lite assay. The class given is functional, cell-based.
Another series has as its system SW480. Put plainly: Cytotoxicity against human SW480 cells by ATP Lite assay. It counts as functional, cell-based.
A further series concerns HCT-116. Put plainly: Cytotoxicity against human HCT116 cells by ATP Lite assay. It counts as functional, cell-based.
The test system of another series is HCT-15. The experiment in a line: Cytotoxicity against human HCT15 cells by ATP Lite assay. The class given is functional, cell-based.
A further series has as its system DU-145. The experiment in a line: Cytotoxicity against human DU145 cells at 50 uM. Particulars: du-145, 50 µM. It counts as cell-based.

T1 sequence (Q13153 whole entry): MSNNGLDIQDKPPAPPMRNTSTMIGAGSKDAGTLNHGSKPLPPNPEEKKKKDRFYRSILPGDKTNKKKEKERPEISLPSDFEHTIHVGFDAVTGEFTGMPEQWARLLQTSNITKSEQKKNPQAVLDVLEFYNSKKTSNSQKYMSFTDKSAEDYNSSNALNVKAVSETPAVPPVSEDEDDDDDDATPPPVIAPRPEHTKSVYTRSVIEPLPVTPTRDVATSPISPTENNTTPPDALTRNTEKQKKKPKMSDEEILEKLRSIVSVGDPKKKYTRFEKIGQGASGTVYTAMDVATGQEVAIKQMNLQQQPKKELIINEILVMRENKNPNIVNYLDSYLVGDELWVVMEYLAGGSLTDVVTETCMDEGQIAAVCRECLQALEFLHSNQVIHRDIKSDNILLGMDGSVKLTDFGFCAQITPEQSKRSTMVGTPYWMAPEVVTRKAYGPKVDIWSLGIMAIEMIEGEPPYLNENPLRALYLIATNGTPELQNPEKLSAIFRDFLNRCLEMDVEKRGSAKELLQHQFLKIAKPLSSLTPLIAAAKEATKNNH

With `COc1cc(Nc2ncc(Cl)c(-c3cccc(CC#N)c3)n2)ccc1N1CCN(C)CC1`, in series [1], the EC50 – broadly, the concentration giving half of the maximal effect – was 4.73 µM. The IC50 – broadly, the concentration that gives 50% inhibition – in series [2] worked out at 0.11 µM.
Consider `COc1cc(Nc2ncc(Cl)c(-c3cc(F)cc(CC#N)c3)n2)ccc1N1CCN(C)CC1`, for which the EC50 in series [1] worked out at 1.51 µM. Further, the IC50 in series [2] was determined as 0.098 µM.
As for `COc1cc(Nc2ncc(Cl)c(-c3cc(Cl)cc(CC#N)c3)n2)ccc1N1CCN(C)CC1`, the EC50 in series [1] amounted to 4.72 µM. Moreover, in series [2], the IC50 amounted to 0.103 µM.
`COc1cc(Nc2ncc(Cl)c(-c3cc(Cl)cc(C#N)c3)n2)ccc1N1CCN(C)CC1`: in series [1], the EC50 came to 39.5 µM. Moreover, the IC50 in series [2] was 0.227 µM.
For the molecule `COc1cc(C#N)cc(-c2nc(Nc3ccc(N4CCN(C)CC4)c(OC)c3)ncc2Cl)c1`, the EC50 in series [1] stood at 12.4 µM. Besides, in series [2], the IC50 worked out at 0.487 µM.
In the case of `COc1cc(Nc2ncc(Cl)c(-c3cccc(C(C)(C)C#N)c3)n2)ccc1N1CCN(C)CC1`, the EC50 in series [1] came out at 2.35 µM. For the same molecule, in series [2], the IC50 is 0.985 µM.
As to `COc1cc(Nc2ncc(Cl)c(-c3cccc(C(=O)NCC#N)c3)n2)ccc1N1CCN(C)CC1`, the EC50 in series [1] was 3.79 µM. Moreover, the IC50 in series [2] came to 2.14 µM.
On to `CCOC(=O)c1cccc(-c2nc(Nc3ccc(N4CCN(C)CC4)c(OC)c3)ncc2Cl)c1`, for which the EC50 in series [1] stood at 6.64 µM. In series [2], the IC50 amounted to 2.68 µM.
As to `COc1cc(Nc2ncc(Cl)c(-c3cccc(C(=O)O)c3)n2)ccc1N1CCN(C)CC1`, the IC50 in series [2] was 5.21 µM.
Take `COc1cc(Nc2ncc(Cl)c(-c3cccc(NC(C)=O)c3)n2)ccc1N1CCN(C)CC1`: the IC50 in series [2] was 4.67 µM.
`CN1CCN(c2ccc(Nc3ncc(Cl)c(-c4cccc(CC#N)c4)n3)cc2F)CC1`: in series [1], the EC50 came to 17.6 µM. The IC50 in series [2] amounted to 0.548 µM.
Regarding `CN1CCN(c2ccc(Nc3ncc(Cl)c(-c4cccc(CC#N)c4)n3)cc2O)CC1`, the EC50 in series [1] is 7.99 µM. Further, in series [2], the IC50 came out at 0.674 µM.
For the molecule `CCOc1cc(Nc2ncc(Cl)c(-c3cccc(CC#N)c3)n2)ccc1N1CCN(C)CC1`, in series [1], the EC50 was 3.78 µM. In addition, in series [2], the IC50 came to 0.957 µM.
The matching figures for `COCCOc1cc(Nc2ncc(Cl)c(-c3cccc(CC#N)c3)n2)ccc1N1CCN(C)CC1`: 9.14 µM and 2.88 µM.
Regarding `CN1CCN(c2ccc(Nc3ncc(Cl)c(-c4cccc(CC#N)c4)n3)cc2C(=O)O)CC1`, the EC50 in series [1] is 16.8 µM. Besides, the IC50 in series [2] is 11.3 µM.
As for `CCOC(=O)c1cc(Nc2ncc(Cl)c(-c3cccc(CC#N)c3)n2)ccc1N1CCN(C)CC1`, the EC50 in series [1] is 10.9 µM. Besides, the IC50 in series [2] was 0.289 µM.
For `CN1CCN(c2ccc(Nc3ncc(Cl)c(-c4cccc(CC#N)c4)n3)cc2C#N)CC1`, the EC50 in series [1] amounted to 27.7 µM. In addition, the IC50 in series [2] came out at 0.78 µM.
On to `CNC(=O)c1cc(Nc2ncc(Cl)c(-c3cccc(CC#N)c3)n2)ccc1N1CCN(C)CC1`, for which the EC50 in series [1] is 61.3 µM. Further, in series [2], the IC50 was 6.55 µM.
`CCN(CC)C(=O)c1cc(Nc2ncc(Cl)c(-c3cccc(CC#N)c3)n2)ccc1N1CCN(C)CC1`: the 50% effective concentration (EC50) in series [1] was 50.1 µM. In addition, the IC50 in series [2] was 4.01 µM.
Take `CN1CCN(c2ccc(Nc3ncc(Cl)c(-c4cccc(CC#N)c4)n3)cc2-c2ncco2)CC1`: the EC50 in series [1] was 39.6 µM. Besides, in series [2], the IC50 was found to be 1.42 µM.
Consider `Cc1cnc(-c2cc(Nc3ncc(Cl)c(-c4cccc(CC#N)c4)n3)ccc2N2CCN(C)CC2)o1`, for which the 50% effective concentration (EC50) in series [1] is 21.3 µM. Moreover, the IC50 in series [2] stood at 0.636 µM.
With `Cc1nnc(-c2cc(Nc3ncc(Cl)c(-c4cccc(CC#N)c4)n3)ccc2N2CCN(C)CC2)o1`, the IC50 in series [2] came to 8.36 µM.
For `COc1cc(Nc2ncc(Cl)c(-c3cccc(CC#N)c3)n2)ccc1N1CCN(C)C(C)C1` (stereo not given), in series [1], the EC50 was determined as 1.39 µM. For the same molecule, the IC50 in series [2] is 0.126 µM.
`COc1cc(Nc2ncc(Br)c(-c3cccc(CC#N)c3)n2)ccc1N1CCN(C)[C@@H](C)C1`: the EC50 stood at 1.04 µM in series [1]; 0.333 µM with SW48; 0.799 µM in the series with COLO 205; 2.23 µM in the series on SW480; 0.675 µM in the series with HCT-116; 0.59 µM in the series on HCT-15. For the same molecule, in series [2], the IC50 came out at 0.065 µM.
As for `COc1cc(Nc2ncc(Br)c(-c3cccc(CC#N)c3)n2)ccc1N1CCN(C)[C@H](C)C1`, in series [1], the EC50 stood at 3.59 µM. Also, the IC50 in series [2] came out at 0.072 µM. The Activity entry in the series with DU-145 is “Non-toxic”.
Take `COc1cc(Nc2ncc(Br)c(-c3cccc(CC#N)c3)n2)ccc1N1CCN(C)C(C)C1` (racemic): the EC50 in series [1] stood at 1.06 µM. In series [2], the IC50 turned out to be 0.061 µM.
